{"source": "patent US12285487B2", "about": "“Liquid topical pharmaceutical nano-emulsion formulations” (JRX BIOTECHNOLOGY, INC., priority 2012, dated 2025)", "assay_type_in_all_cases": "physicochemical", "key": {"[1]": {"assay": "Particle size analysis by laser diffraction of neat API", "settings": "for Particle Size Mean / Particle Size Median / Particle Size Mode: dispersed in cyclohexane", "text": "For particle size analysis, by laser diffraction (LD), a small sample of the dry powder was dispersed into cyclohexane with sonication and then diluted to an appropriate signal level. The optical microscope was a Zeiss Model Std 25 fitted with a 40× objective. […] The Raman spectrometer was a Horiba XploRA Raman Microscope."}, "[2]": {"assay": "Optical microscopic examination of neat API dry powder", "settings": "for estimates of size range by optical microscopy: 400× magnification", "text": "Neat API: For optical microscopic/image analysis examination the material was used as received. A small aliquot was placed on a clean microscope slide and a clean glass coverslip placed on top.\n(§1) The optical microscope was a Zeiss Model Std 25 fitted with a 40× objective. The particle size analyzers were the Horiba LA 950 (LD) and a Malvern NanoSizer 90Z (DLS). The Raman spectrometer was a Horiba XploRA Raman Microscope."}, "[3]": {"assay": "Particle size of aspirin formulation vs dry aspirin (Example 4, DLS Z-average)", "description": "The particle size of aspirin (dry powder) and the aspirin diluted in the dermal and/or transdermal liquid formulation set forth in Example 1 were compared. Two studies were carried out to determine the particle size (and distribution) of samples of: (i) the formulation of Example 1, lacking only the aspirin (delivery system control), (ii) the formulation of Example 1, including the aspirin (experimental) and (iii) pure (dry) aspirin (control)."}, "[4]": {"assay": "Particle size analysis by Dynamic Light Scattering (Example 8)", "settings": "DLS intensity data", "text": "as §1"}}, "data": [{"compound": "CC(C(=O)O)c1cccc(C(=O)c2ccccc2)c1", "note": "(racemic) [Ketoprofen, (RS)2-(3-benzoylphenyl)-propionic acid]", "values": [{"measurement": "size of the majority of particles", "setting": "[1]", "value": "about 30 μm"}, {"measurement": "Particle Size Mean", "setting": "[1]", "value": 34, "unit": "μm"}, {"measurement": "Particle Size Median", "setting": "[1]", "value": 27, "unit": "μm"}, {"measurement": "Particle Size Mode", "setting": "[1]", "value": 28, "unit": "μm"}]}, {"compound": "CC(=O)Nc1ccc(O)cc1", "note": "[Acetaminophen, N-acetyl-para-aminophenol]", "values": [{"measurement": "particle size prior to formulation", "setting": "[2]", "value": "1-100 microns"}, {"measurement": "estimates of size range by optical microscopy", "setting": "[2]", "value": "from around one or two microns (μm) to over 100 μm"}, {"measurement": "Particle Size Mean", "setting": "[1]", "value": 58, "unit": "μm"}, {"measurement": "Particle Size Median", "setting": "[1]", "value": 44, "unit": "μm"}, {"measurement": "Particle Size Mode", "setting": "[1]", "value": 42, "unit": "μm"}]}, {"compound": "CC(C)Cc1ccc(C(C)C(=O)O)cc1", "note": "(stereo not drawn) [Ibuprofen, iso-butyl-propanoic-phenolic acid]", "values": [{"measurement": "estimates of size range by optical microscopy", "setting": "[2]", "value": "from around 10 μm to over 100 μm"}, {"measurement": "Particle Size Mean", "setting": "[1]", "value": 78, "unit": "μm"}, {"measurement": "Particle Size Median", "setting": "[1]", "value": 70, "unit": "μm"}, {"measurement": "Particle Size Mode", "setting": "[1]", "value": 72, "unit": "μm"}]}, {"compound": "COc1ccc2cc(C(C)C(=O)O)ccc2c1", "note": "(stereo not drawn) [Naproxen, 2-(6-methoxynaphthalen-2-yl)propanoic acid]", "values": [{"measurement": "estimates of size range by optical microscopy", "setting": "[2]", "value": "singlet particles of only a few microns in size and aggregates as large as 100 μm"}, {"measurement": "size of the majority of particles", "setting": "[1]", "value": "around 20 μm"}, {"measurement": "Particle Size Mean", "setting": "[1]", "value": 23, "unit": "μm"}, {"measurement": "Particle Size Median", "setting": "[1]", "value": 23, "unit": "μm"}, {"measurement": "Particle Size Mode", "setting": "[1]", "value": 19, "unit": "μm"}]}, {"compound": "CC(=O)Oc1ccccc1C(=O)O", "note": "[pure (dry) Aspirin, acetylsalicylic acid]", "values": [{"measurement": "size relative to aspirin in the formulation of Example 1", "setting": "[3]; dry aspirin vs formulated aspirin", "value": "more than 10,000 times"}, {"measurement": "average particle size", "setting": "[3]; dry aspirin, prior to formulation", "value": 670, "unit": "microns"}]}, {"compound": "Neat Insulin: insulin supplied as an aqueous solution/suspension", "values": [{"measurement": "presence of particles as large as", "setting": "[4]", "value": "≤ 5", "unit": "μm"}]}]}
